Measured values taken from patent US9145425B2, “Cephem compound having catechol group” (SHIONOGI & CO., LTD., priority 2010, dated 2015).
Converted amounts (≈) assume the structure as drawn.

Assays:
Format in all cases: cell-based
[1] = test system: Acinetobacter baumannii SR24396; experiment: Minimum Inhibitory Concentration (MIC), agar plate incubation, Japan Society for Chemotherapy standard method; details: Acinetobacter baumannii SR24396, no enzyme, 1000 cfu/spot, sensitive disc medium; for MIC: read-out: Minimum Inhibitory Concentration (MIC)
Protocol: (§1) The antimicrobial activity in vitro of the present compound (I) was determined.
(§2) Measurement of Minimum Inhibitory Concentration (MIC, μg/ml) was conducted according to the standard method of the Japan Society for Chemotherapy and the amount of bacteria for inoculation was 1000 cfu/spot, and sensitive disc medium was used as the test medium, and conducted using agar plate incubation.
(§3) In the tables, the unit of the values of inhibitory activity is μg/ml.

[2] = test system: Pseudomonas aeruginosa SR24; experiment: as above; details: Pseudomonas aeruginosa SR24, no enzyme, ceftazidime sensitive strain, 1000 cfu/spot, sensitive disc medium; for MIC: read-out: Minimum Inhibitory Concentration (MIC)
Protocol: as §1, §2, §3

[3] = test system: Klebsiella pneumoniae ATCC 700603; experiment: as above; details: Klebsiella pneumoniae ATCC 700603, SHV-18, ESBL producer strain, 1000 cfu/spot, sensitive disc medium; for MIC: ATCC700603, read-out: Minimum Inhibitory Concentration (MIC)
Protocol: as §1, §2, §3

[4] = test system: Pseudomonas aeruginosa SR27060; experiment: as above; details: Pseudomonas aeruginosa SR27060, IMP-1, MBL producer strain (carbapenem resistant strain), 1000 cfu/spot, sensitive disc medium; for MIC: read-out: Minimum Inhibitory Concentration (MIC)
Protocol: as §1, §2, §3

[5] = test system: Stenotrophomonas maltophilia SR21970; experiment: Minimum Inhibitory Concentration (MIC), agar plate incubation, CLSI method; details: Stenotrophomonas maltophilia SR21970, L-1, MBL producer strain (carbapenem resistant strain), 10000 cfu/spot, Mueller-Hinton agar medium; for MIC: read-out: Minimum Inhibitory Concentration (MIC)
Protocol: as §1
Measurement of Minimum Inhibitory Concentration (MIC, μg/ml) was conducted according to the CLSI (Clinical and Laboratory Standards Institute) and the amount of bacteria for inoculation was 10000 cfu/spot, and Mueller-Hinton agar medium was used as the test medium, and conducted using agar plate incubation.
as §3

| SMILES | Minimum Inhibitory Concentration (MIC) [1] [µg/mL] | Minimum Inhibitory Concentration (MIC) [2] [µg/mL] | Minimum Inhibitory Concentration (MIC) [3] [µg/mL] | Minimum Inhibitory Concentration (MIC) [4] [µg/mL] | Minimum Inhibitory Concentration (MIC) [5] [µg/mL] | MIC [1] [µg/mL] | MIC [2] [µg/mL] | MIC [3] [µg/mL] | MIC [4] [µg/mL] | MIC [5] [µg/mL] |
| --- | --- | --- | --- | --- | --- | --- | --- | --- | --- | --- |
| CC(ON=C(C(=O)NC1C(=O)N2C(C(=O)[O-])=C(C[N+]34CCC(CNC(=O)c5ccc(O)c(O)c5Cl)(CC3)CC4)CSC12)c1csc(N)n1)C(=O)[O-].[Na+] (stereo not drawn) [Compound I-35] | 0.5 | 0.063 | 1 | 0.25 | 1 | – | – | – | – | – |
| CC(ON=C(C(=O)NC1C(=O)N2C(C(=O)[O-])=C(C[N+]3(CCNC(=O)c4ccc(O)c(O)c4Cl)CCCC3)CSC12)c1csc(N)n1)C(=O)[O-].[Na+] (stereo not drawn) [Compound I-36] | 0.5 | 0.125 | 0.5 | 0.25 | 1 | – | – | – | – | – |
| CCC(ON=C(C(=O)NC1C(=O)N2C(C(=O)[O-])=C(C[N+]34CCCC3CN(C(=O)c3ccc(O)c(O)c3Cl)CC4)CSC12)c1csc(N)n1)C(=O)[O-].[Na+] (stereo not drawn) [Compound I-37] | 0.125 | 0.125 | 0.5 | 1 | 1 | – | – | – | – | – |
| NC(=O)CC(ON=C(C(=O)NC1C(=O)N2C(C(=O)[O-])=C(C[N+]34CCCC3CN(C(=O)c3ccc(O)c(O)c3Cl)CC4)CSC12)c1csc(N)n1)C(=O)[O-].[Na+] (stereo not drawn) [Compound I-38] | 0.25 | 0.125 | 1 | 2 | 1 | – | – | – | – | – |
| C[N+]1(CC2=C(C(=O)[O-])N3C(=O)C(NC(=O)C(=NOC(CC(=O)[O-])C(=O)[O-])c4csc(N)n4)C3SC2)CC2CN(C(=O)c3ccc(O)c(O)c3Cl)CC2C1.[Na+].[Na+] (stereo not drawn) [Compound I-41] | 0.125 | 0.125 | 0.5 | 0.5 | 1 | – | – | – | – | – |
| CC(C)(O/N=C(\C(=O)N[C@@H]1C(=O)N2C(C(=O)[O-])=C(C[N+]3(C)CCC4(CCN(C(=O)c5ccc(O)c(O)c5Cl)CC4)CC3)CS[C@H]12)c1csc(N)n1)C(=O)[O-].[Na+] [Compound I-42] | 0.25 | 0.063 | 0.25 | 1 | 1 | – | – | – | – | – |
| Nc1nc(/C(=N/O[C@H](C(=O)[O-])c2ccccc2)C(=O)N[C@@H]2C(=O)N3C(C(=O)[O-])=C(C[N+]4(CCNC(=O)c5ccc(O)c(O)c5Cl)CCCC4)CS[C@H]23)ns1.[Na+] [Compound I-51] | 0.125 | 0.063 | 0.25 | 0.5 | 1 | – | – | – | – | – |
| Nc1nc(/C(=N/O[C@H](C(=O)[O-])c2ccccc2)C(=O)N[C@@H]2C(=O)N3C(C(=O)O)=C(C[N+]45CCC[C@H]4CN(C(=O)c4ccc(O)c(O)c4Cl)CC5)CS[C@H]23)ns1 (stereo partly drawn) [Compound I-52] | – | – | – | – | – | 0.125 (≈ 0.154 µM) | 0.125 (≈ 0.154 µM) | 0.5 (≈ 0.615 µM) | 2 (≈ 2.46 µM) | 1 (≈ 1.23 µM) |
| Nc1nc(/C(=N/O[C@@H](CC(=O)[O-])C(=O)[O-])C(=O)N[C@@H]2C(=O)N3C(C(=O)[O-])=C(C[N+]4(CCNC(=O)c5ccc(O)c(O)c5Cl)CCCC4)CS[C@H]23)cs1.[Na+].[Na+] [Compound I-59] | 0.125 | 0.063 | 0.25 | 0.25 | 0.5 | – | – | – | – | – |
| C[C@@H](O/N=C(\C(=O)N[C@@H]1C(=O)N2C(C(=O)O)=C(C[N+]34CCC[C@H]3CN(C(=O)c3ccc(O)c(O)c3Cl)CC4)CS[C@H]12)c1csc(N)n1)C(=O)[O-] (stereo partly drawn) [Compound I-63] | – | – | – | – | – | 0.25 (≈ 0.333 µM) | 0.063 (≈ 0.084 µM) | 1 (≈ 1.33 µM) | 0.5 (≈ 0.666 µM) | 0.5 (≈ 0.666 µM) |
| N#CC[C@H](O/N=C(\C(=O)N[C@@H]1C(=O)N2C(C(=O)O)=C(C[N@@+]34CC[C@@H](C3)N(C(=O)c3ccc(O)c(O)c3Cl)CC4)CS[C@H]12)c1csc(N)n1)C(=O)[O-] [II-1] | – | – | – | – | – | 0.063 (≈ 0.0828 µM) | 0.125 (≈ 0.164 µM) | 0.25 (≈ 0.328 µM) | 0.5 (≈ 0.657 µM) | 2 (≈ 2.63 µM) |
| CC(C)(O/N=C(\C(=O)N[C@@H]1C(=O)N2C(C(=O)[O-])=C(C[N+]3(C)[C@@H]4CC[C@H]3C[C@@H](NC(=O)c3ccc(O)c(O)c3Cl)C4)CS[C@H]12)c1csc(N)n1)C(=O)O (stereo partly drawn) [II-2] | – | – | – | – | – | 0.25 (≈ 0.321 µM) | 0.125 (≈ 0.161 µM) | 0.5 (≈ 0.642 µM) | 1 (≈ 1.28 µM) | 2 (≈ 2.57 µM) |
| C[N+]1(CC2=C(C(=O)[O-])N3C(=O)[C@@H](NC(=O)/C(=N\O[C@@H](CC(=O)O)C(=O)O)c4csc(N)n4)[C@H]3SC2)[C@@H]2CC[C@H]1C[C@@H](NC(=O)c1ccc(O)c(O)c1Cl)C2 (stereo partly drawn) [II-3] | – | – | – | – | – | 0.125 (≈ 0.155 µM) | 0.125 (≈ 0.155 µM) | 0.5 (≈ 0.619 µM) | 0.5 (≈ 0.619 µM) | 0.5 (≈ 0.619 µM) |
| C[N+]1(CC2=C(C(=O)[O-])N3C(=O)[C@@H](NC(=O)/C(=N\O[C@@H](CC(=O)[O-])C(=O)[O-])c4nc(N)sc4Cl)[C@H]3SC2)[C@@H]2CC[C@H]1C[C@@H](NC(=O)c1ccc(O)c(O)c1Cl)C2.[Na+].[Na+] (stereo partly drawn) [II-5] | 0.125 | 0.125 | 0.5 | 0.25 | 4 | – | – | – | – | – |
| C[N+]1(CC2=C(C(=O)[O-])N3C(=O)C(NC(=O)C(=NOC(CC(=O)[O-])C(=O)[O-])c4csc(N)n4)C3SC2)C2CCC1CN(C(=O)c1ccc(O)c(O)c1Cl)C2.[Na+].[Na+] (stereo not drawn) [II-7] | 0.125 | 0.25 | 0.5 | 0.5 | 0.5 | – | – | – | – | – |
| C[N+]1(CC2=C(C(=O)[O-])N3C(=O)[C@@H](NC(=O)/C(=N\O[C@@H](CC(=O)O)C(=O)O)c4csc(N)n4)[C@H]3SC2)[C@@H]2CC[C@H]1C[C@H](NC(=O)c1ccc(O)c(O)c1Cl)C2 (stereo partly drawn) [II-9] | – | – | – | – | – | 0.063 (≈ 0.0779 µM) | 0.25 (≈ 0.309 µM) | 1 (≈ 1.24 µM) | 0.5 (≈ 0.619 µM) | 0.25 (≈ 0.309 µM) |
| CC(C)(O/N=C(\C(=O)N[C@@H]1C(=O)N2C(C(=O)[O-])=C(C[N+]3(CCNC(=O)c4cc(O)c(O)c(F)c4)CCCC3)CS[C@H]12)c1csc(N)n1)C(=O)[O-].[Na+] [II-15] | 0.125 | 0.063 | 0.125 | 0.25 | 0.5 | – | – | – | – | – |
| Nc1nc(C(=NOC(CC(=O)[O-])C(=O)[O-])C(=O)NC2C(=O)N3C(C(=O)[O-])=C(C[N+]45CCCC4CN(C(=O)c4cc(O)c(O)c(F)c4)CC5)CSC23)cs1.[Na+].[Na+] (stereo not drawn) [II-16] | 0.125 | 0.125 | 0.25 | 0.5 | 0.5 | – | – | – | – | – |
